Assay results published in PMC6332508, “A Promising PET Tracer for Imaging of α7 Nicotinic Acetylcholine Receptors in the Brain: Design, Synthesis, and in Vivo Evaluation of a Dibenzothiophene-Based Radioligand” (Molecules, 2015).
Several values for one entry are separate records, joined by “and”; a condition that tells them apart may be missing. Equal values may be shown once. Read-outs that look alike come from different tables or passages of the source.

Tests used:
human 5-HT3 receptor = target: T1, human 5-HT3 receptor (Homo sapiens, UniProt P46098); experiment: Radioligand binding at human 5-HT3 receptor, [3H]GR65630 (Eurofins Panlabs); details: read-out: 5-HT3 percentage of inhibition
T1 construct: host or cells: HEK-293
T1 sequence (P46098 24-478): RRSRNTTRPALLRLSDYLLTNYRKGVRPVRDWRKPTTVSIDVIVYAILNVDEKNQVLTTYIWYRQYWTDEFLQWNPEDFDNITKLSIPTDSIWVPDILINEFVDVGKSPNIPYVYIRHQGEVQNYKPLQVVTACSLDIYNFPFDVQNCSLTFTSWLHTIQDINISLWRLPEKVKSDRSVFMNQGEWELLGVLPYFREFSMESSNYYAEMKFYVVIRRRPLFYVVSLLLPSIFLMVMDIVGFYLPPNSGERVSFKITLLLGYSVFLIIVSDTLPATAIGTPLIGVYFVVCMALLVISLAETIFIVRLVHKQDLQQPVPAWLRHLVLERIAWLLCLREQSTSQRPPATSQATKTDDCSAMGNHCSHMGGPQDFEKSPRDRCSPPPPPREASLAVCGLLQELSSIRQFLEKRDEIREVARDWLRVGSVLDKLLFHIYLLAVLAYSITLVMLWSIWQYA

rat α6β2* nAChR = rat α6β2* nAChR (Rattus norvegicus, UniProt P12390+P43143); experiment: [3H]epibatidine binding to antibody-immobilized native rat α6β2* nAChR from striatum; details: read-out: Affinity (Ki in nM) rα6β2*, immunoimmobilization with anti-rα6 antibody, [3H]epibatidine 0.1 nM
Procedure: The specificity of the anti-α6 antibody was tested as described. The receptors were prepared and immobilized as previously described by the subunit-specific antibody. […] Incubations were performed in a buffer containing 50 mM Tris-HCl, pH 7, 150 mM NaCl, 5 mM KCl, 1 mM MgCl2, 2.5 mM CaCl2, 2 mg∙mL^−1 BSA, and 0.05% Tween 20. Specific ligand binding was defined as total binding minus the binding in the presence of 100 nM (±)-epibatidine dihydrochloride hydrate.
The experimental data obtained from the binding experiments were analyzed by means of a non-linear least square procedure using the LIGAND program. The Ki values of the test compounds were also determined by means of the LIGAND program by simultaneously fitting the data obtained from three to five independent saturation and competition binding experiments.

human α7 nAChR = target: T2, human α7 nAChR (Homo sapiens, UniProt P36544); experiment: Radioligand displacement at human α7 nAChR, [3H]methyllycaconitine, SH-SY5Y cells; format: binding; details: for Selectivity (Ki ratio) α7/α3β4: Ki hα3β4 divided by Ki hα7; for Selectivity (Ki ratio) α7/α4β2: Ki hα4β2 divided by Ki hα7
T2 construct: expressed in transfected cells; host or cells: SH-SY5Y

human α4β2 nAChR = target: T3, human α4β2 nAChR (Homo sapiens, UniProt P17787+P43681); experiment: Radioligand displacement at human α4β2 nAChR, [3H]epibatidine, HEK293 cells; format: binding
T3 construct: expressed in transfected cells; host or cells: HEK293
Procedure: (§1) The affinity of the test compounds for human α4β2 and α3β4 nAChR was determined as described above. In brief, HEK293 cells stably expressing human α4β2 or α3β4 nAChR [66] were cultured. […] Nonspecific binding was determined in the presence of 300 μM (−)-nicotine tartrate. Incubation of the samples, separation of free from receptor-bound radioligand, and data evaluation were performed as described above.

human α3β4 nAChR = target: T4, human α3β4 nAChR (Homo sapiens, UniProt P30926+P32297); experiment: Radioligand displacement at human α3β4 nAChR, [3H]epibatidine, HEK293 cells; format: binding
T4 construct: expressed in transfected cells; host or cells: HEK293
Procedure: as §1

α7 nAChR [1] = target: T5, α7 nAChR (Macaca mulatta, UniProt Q866A2); experiment: Comparative PET study in a rhesus monkey; format: in vivo, rhesus monkey (Macaca mulatta)
T5 construct: from tissue; host or cells: brain of a living rhesus monkey
Procedure: One male rhesus monkey (Macaca mulatta, 6 years old, body weight = 10 kg) underwent two PET imaging sessions with [^18F]10a and [^18F]10b, respectively. The scans were conducted 19 days apart. The monkey was initially sedated by intramuscular ketamine at 10 mg∙kg^−1 at ~2 h before the PET scan and anesthetized by 1.5%–3% isoflurane throughout the imaging session. PET scan was performed using a FOCUS-220 PET scanner (Siemens Preclinical Solutions, Knoxville, TN, USA). After a transmission scan, 167 MBq of [^18F]10a (specific activity of 362 GBq∙μmol^−1) or 185 MBq of [^18F]10b (specific activity of 159 GBq·μmol^−1) were administered intravenously. Emission data were acquired in list mode for 240 min. Raw list-mode PET data was histogrammed (frames of 6 × 30 s; 3 × 1 min; 2 × 2 min; 46 × 5 min to scan termination) and reconstructed with 2D filtered back projection, using a 0.15 cm^−1 Shepp filter and including corrections for scanner normalization, detector dead time, randoms, and radiation scatter and attenuation. The PET images were then registered to MR images, acquired with a Siemens 3 T Trio scanner, with a 6-parameter rigid body registration. The MR native space was then normalized using nonlinear affine registration to a high-resolution rhesus monkey atlas using BioImage Suite 3.01 (http://www.bioimagesuite.org/index.html). Time-activity curves were extracted by mapping atlas-defined regions to PET native space using the optimal transformation matrices calculated in the registration and normalization steps. Regions extracted included amygdala, caudate, cerebellum, cingulate, cortical regions (frontal, occipital, and temporal cortex), hippocampus, putamen, thalamus, and pons.

α7 nAChR [2] = details: [125I]α-bungarotoxin labelled rat cortical membranes; cited from earlier work
α3β4 nAChR = target: α3β4 nAChR; design: method as in PMID 24050653; details: rat receptor subtype; cited from earlier work
α4β2 nAChR = details: cited from earlier work
[3] = 0.1 μM concentration of test compound, [3H]GR65630 binding
[4] = stably transfected SH-SY5Y cells, [3H]methyllycaconitine, read-out: Affinity (Ki in nM) hα7
[5] = stably transfected HEK-293 cells, [3H]epibatidine, read-out: Affinity (Ki in nM) hα4β2
[6] = Affinity (Ki in nM) hα3β4, stably transfected HEK-293 cells, [3H]epibatidine
[7] = stably transfected HEK-293 cells, [3H]epibatidine, read-out: Affinity (Ki in nM) hα3β4

T2 sequence (P36544 23-502): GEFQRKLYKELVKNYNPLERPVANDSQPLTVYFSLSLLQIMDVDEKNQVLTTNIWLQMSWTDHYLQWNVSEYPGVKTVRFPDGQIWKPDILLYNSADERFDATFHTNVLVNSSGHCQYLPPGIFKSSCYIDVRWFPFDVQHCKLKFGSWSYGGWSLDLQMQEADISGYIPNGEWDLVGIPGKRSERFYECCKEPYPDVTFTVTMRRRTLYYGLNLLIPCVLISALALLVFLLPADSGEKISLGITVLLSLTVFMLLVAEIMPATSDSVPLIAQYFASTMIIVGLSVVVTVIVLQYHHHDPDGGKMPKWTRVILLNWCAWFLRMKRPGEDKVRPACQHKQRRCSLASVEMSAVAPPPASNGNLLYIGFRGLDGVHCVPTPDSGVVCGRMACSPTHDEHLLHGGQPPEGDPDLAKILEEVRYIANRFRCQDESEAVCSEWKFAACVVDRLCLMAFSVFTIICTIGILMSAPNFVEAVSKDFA
T4 sequence (P32297 32-505): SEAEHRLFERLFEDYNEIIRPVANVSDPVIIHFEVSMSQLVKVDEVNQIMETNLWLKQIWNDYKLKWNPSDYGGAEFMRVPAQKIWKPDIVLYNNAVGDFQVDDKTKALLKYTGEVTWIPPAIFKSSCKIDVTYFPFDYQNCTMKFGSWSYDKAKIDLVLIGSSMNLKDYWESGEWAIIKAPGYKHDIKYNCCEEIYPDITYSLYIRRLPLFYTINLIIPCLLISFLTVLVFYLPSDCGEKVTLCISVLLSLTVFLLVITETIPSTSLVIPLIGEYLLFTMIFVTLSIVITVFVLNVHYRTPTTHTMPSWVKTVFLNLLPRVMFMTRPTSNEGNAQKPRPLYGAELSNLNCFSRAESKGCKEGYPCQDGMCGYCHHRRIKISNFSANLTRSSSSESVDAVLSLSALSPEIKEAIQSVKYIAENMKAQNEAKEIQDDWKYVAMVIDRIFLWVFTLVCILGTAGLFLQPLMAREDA
T4 sequence (P30926 22-498): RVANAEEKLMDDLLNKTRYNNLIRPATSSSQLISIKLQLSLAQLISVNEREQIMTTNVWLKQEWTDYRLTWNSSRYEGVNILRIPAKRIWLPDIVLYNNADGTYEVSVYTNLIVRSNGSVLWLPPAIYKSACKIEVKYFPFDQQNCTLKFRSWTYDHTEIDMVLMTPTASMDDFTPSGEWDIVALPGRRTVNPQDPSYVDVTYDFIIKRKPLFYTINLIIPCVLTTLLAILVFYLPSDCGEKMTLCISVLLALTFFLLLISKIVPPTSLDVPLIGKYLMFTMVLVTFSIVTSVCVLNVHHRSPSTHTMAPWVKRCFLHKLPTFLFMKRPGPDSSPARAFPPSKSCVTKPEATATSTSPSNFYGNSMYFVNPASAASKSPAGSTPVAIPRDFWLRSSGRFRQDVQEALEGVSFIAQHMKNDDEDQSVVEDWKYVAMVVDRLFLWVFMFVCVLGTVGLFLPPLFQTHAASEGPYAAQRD
rat α6β2* nAChR, sequence (P43143 31-493): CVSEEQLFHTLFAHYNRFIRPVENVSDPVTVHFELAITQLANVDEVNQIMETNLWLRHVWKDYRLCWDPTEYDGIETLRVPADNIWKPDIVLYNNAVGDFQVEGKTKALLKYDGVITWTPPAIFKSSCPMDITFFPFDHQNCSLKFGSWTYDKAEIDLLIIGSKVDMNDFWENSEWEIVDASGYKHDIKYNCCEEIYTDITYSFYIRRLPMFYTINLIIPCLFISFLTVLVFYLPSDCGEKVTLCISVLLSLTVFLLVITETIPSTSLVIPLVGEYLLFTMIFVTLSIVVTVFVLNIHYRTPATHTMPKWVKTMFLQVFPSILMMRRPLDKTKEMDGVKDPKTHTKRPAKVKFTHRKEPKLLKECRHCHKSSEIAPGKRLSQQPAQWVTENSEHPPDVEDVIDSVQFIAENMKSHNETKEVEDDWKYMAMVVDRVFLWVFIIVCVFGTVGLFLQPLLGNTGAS
rat α6β2* nAChR, sequence (P12391 31-464, further chain): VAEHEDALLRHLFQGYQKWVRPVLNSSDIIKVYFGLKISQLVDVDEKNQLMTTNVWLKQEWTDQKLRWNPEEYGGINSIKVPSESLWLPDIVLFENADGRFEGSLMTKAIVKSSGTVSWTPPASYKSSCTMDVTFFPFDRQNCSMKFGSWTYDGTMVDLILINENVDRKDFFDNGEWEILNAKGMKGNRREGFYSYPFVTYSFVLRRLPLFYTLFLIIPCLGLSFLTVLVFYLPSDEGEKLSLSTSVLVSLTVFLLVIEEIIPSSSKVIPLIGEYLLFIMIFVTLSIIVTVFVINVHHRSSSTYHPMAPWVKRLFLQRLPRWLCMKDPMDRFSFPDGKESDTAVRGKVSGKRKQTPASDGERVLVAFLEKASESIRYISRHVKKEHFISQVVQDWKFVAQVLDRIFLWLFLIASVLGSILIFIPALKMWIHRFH
rat α6β2* nAChR, sequence (P12390 25-500): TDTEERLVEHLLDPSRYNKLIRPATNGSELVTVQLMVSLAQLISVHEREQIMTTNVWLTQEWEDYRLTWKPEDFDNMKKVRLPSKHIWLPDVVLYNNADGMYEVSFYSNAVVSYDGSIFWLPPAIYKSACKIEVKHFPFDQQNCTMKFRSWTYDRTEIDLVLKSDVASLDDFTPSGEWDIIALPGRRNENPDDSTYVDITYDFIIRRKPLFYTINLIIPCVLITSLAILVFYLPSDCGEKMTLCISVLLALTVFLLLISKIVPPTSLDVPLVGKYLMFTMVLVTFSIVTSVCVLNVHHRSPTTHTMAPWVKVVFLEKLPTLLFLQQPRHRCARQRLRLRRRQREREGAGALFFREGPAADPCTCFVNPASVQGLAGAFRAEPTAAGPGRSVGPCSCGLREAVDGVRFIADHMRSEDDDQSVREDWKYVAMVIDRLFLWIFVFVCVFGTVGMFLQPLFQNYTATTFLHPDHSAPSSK
T3 sequence (P43681 29-627 limits assumed): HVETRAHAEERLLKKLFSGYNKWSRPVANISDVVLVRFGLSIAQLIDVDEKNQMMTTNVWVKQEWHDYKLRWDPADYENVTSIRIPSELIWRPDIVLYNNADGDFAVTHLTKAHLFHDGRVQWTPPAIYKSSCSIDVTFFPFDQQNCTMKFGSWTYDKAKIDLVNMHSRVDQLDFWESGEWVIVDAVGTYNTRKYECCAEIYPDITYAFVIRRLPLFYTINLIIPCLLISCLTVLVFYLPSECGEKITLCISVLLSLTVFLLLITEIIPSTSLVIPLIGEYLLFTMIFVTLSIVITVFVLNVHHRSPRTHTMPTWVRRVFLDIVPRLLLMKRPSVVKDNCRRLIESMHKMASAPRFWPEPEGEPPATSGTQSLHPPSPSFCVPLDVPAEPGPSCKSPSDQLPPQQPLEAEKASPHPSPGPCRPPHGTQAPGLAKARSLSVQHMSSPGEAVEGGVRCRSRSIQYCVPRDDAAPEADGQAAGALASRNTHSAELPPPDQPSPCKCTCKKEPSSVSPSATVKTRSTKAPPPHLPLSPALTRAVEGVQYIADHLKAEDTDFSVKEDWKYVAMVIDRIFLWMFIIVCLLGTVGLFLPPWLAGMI
T3 sequence (P17787 26-502): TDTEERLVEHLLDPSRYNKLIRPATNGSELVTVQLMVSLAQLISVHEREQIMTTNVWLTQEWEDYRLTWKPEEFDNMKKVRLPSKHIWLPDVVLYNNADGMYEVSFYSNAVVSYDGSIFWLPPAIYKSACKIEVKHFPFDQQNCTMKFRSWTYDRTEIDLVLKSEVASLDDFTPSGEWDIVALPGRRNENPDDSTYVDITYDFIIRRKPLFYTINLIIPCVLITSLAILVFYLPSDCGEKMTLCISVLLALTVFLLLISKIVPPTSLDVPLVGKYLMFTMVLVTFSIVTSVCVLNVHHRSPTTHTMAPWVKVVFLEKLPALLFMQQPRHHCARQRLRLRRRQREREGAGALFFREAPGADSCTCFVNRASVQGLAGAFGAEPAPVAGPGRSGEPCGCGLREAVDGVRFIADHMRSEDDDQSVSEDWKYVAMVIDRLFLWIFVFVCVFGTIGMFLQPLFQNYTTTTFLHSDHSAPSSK
T5 sequence (Q866A2 23-502): as the sequence (P36544 23-502) above, with N171S, R186K, V373M, V376A counted along it

| SMILES | melting point | inhibition at 0.1 µM (human 5-HT3 receptor; [3]) [%] | Ki (rat α6β2* nAChR) [nM] | Selectivity (Ki ratio) α7/α3β4 (human α7 nAChR) | Selectivity (Ki ratio) α7/α4β2 (human α7 nAChR) | Ki (human α7 nAChR; [4]) [nM] | Ki (human α4β2 nAChR; [5]) [nM] | Ki (human α3β4 nAChR; [6]) | also measured |
| --- | --- | --- | --- | --- | --- | --- | --- | --- | --- |
| CN1C2CCCC1CN(c1ccc3c(c1)S(=O)(=O)c1ccc(F)cc1-3)C2 [Compound 12a] | 214 to 217 °C (dec.) | 10 | 1180 ± 360 | 3 | 5 | 30.9 ± 8.72 | 141 ± 11.7 | 96 ± 1.48 nM | – |
| CN1C2CCC1CN(c1ccc3c(c1)S(=O)(=O)c1c(F)cccc1-3)C2 [Compound 13b] | 260.5 to 262.5 °C (dec.) | 10 | 2260 ± 540 | 5 | 10 | 40.9 ± 7.77 | 426 ± 197 | – | Ki (human α3β4 nAChR; [7]): 224 ± 51.7 nM |
| O=S1(=O)c2cc(N3CCN4CCC3CC4)ccc2-c2cccc([18F])c21 [[^18F]10b, reference compound] | – | – | – | – | – | – | – | – | total volume of distribution VT (α7 nAChR [1]; cerebellum): 26.8 mL∙cm^−3; total volume of distribution VT (α7 nAChR [1]; thalamus): 46.7 mL∙cm^−3 |
| CN1CC2CCC(C1)N2c1ccc2c(c1)S(=O)(=O)c1c(F)cccc1-2 [Compound 14b] | 254.5 to 256 °C (dec.) | 4 | 1450 ± 370 | >500 | >400 | 9.26 ± 2.23 | > 4000 | – | Ki (human α3β4 nAChR; [7]): > 5000 nM |
| O=S1(=O)c2cc(N3CCN4CCC3CC4)ccc2-c2cccc(F)c21 [Compound 10b, 3-(1,4-Diazabicyclo[3.2.2]nonan-4-yl)-6-fluorodibenzo[b,d]thiophene 5,5-dioxide] | – | 42 | 435 ± 152 | – | – | – | 211 ± 108 | 43 nM and 42.3 nM | Ki (α7 nAChR [2]): 0.4 nM; Ki (α3β4 nAChR): 709 nM |
| O=S1(=O)c2cc(N3CCN4CCC3CC4)ccc2-c2cccc(F)c21 [[^18F]10b, reference compound] | – | – | – | – | – | – | – | – | Ki (α4β2 nAChR): 562 nM |
| Fc1ccc(-c2nnc(N3CCN4CCC3CC4)o2)cc1 [[^18F]NS10743] | – | – | – | – | – | – | – | – | Ki (α4β2 nAChR): > 10000 nM |
| O=S1(=O)c2ccccc2-c2cc(F)c(N3CCN4CCC3CC4)cc21 [Compound 10c, 3-(1,4-Diazabicyclo[3.2.2]nonan-4-yl)-2-fluorodibenzo[b,d]thiophene 5,5-dioxide] | 305 to 309 °C (dec.) | 26 | 1390 ± 340 | 33 | 59 | 8.53 ± 1.74 | – | – | fold lower affinity at the α7 subtype (human α7 nAChR; relative to 10a and 10b): about 10 fold; Ki (human α4β2 nAChR): 507 ± 212 nM; Ki (human α3β4 nAChR): 279 ± 24.4 nM |
| O=[N+]([O-])c1ccc2c(c1)-c1ccc(N3CCN4CCC3CC4)cc1S2(=O)=O | 291 to 294 °C (dec.) | – | – | – | – | – | – | – | – |
| O=S1(=O)c2ccccc2-c2ccc(N3CCN4CCC3CC4)cc21 [Compound 10] | 238.5 to 240 °C (dec.) | – | 517 ± 186 | 97 | 623 | – | – | 49.6 ± 14.7 nM | inhibition at 0.1 µM (human 5-HT3 receptor): 35%; Ki (human α7 nAChR): 0.51 ± 0.32 nM; Ki (human α4β2 nAChR): 318 ± 43.3 nM |
| CN1C2CCCC1CN(c1ccc3c(c1)S(=O)(=O)c1c(F)cccc1-3)C2 [Compound 12b, 6-Fluoro-3-(9-methyl-3,9-diazabicyclo[3.3.1]nonan-3-yl)dibenzo[b,d]thiophene 5,5-dioxide] | 264 to 272 °C (dec.) | 11 | 1190 ± 230 | 1 | 3 | 105 ± 23.9 | 301 ± 148 | 94.8 ± 6.48 nM | – |
